Results: US10829509B2, “Pure heptasulfated disaccharides having improved oral bioavailability” (OPKO Pharmaceuticals, LLC., priority 2016, dated 2020)
Entries after “also recorded” stand apart in the source; their conditions may differ.

Assays:
[1] = tested on: allergic sheep challenged with Ascaris suum antigen; assay: Antigen-induced early and late airway responses (EAR, LAR), pulmonary airflow resistance RL, in allergic sheep; type: in vivo
Protocol: (§1) Pulmonary airflow resistance was measured by taking allergic sheep previously verified as dual bronchoconstrictor responders to Ascaris suum antigen. The sheep were intubated with a cuffed nasotracheal tube and pulmonary airflow resistance (RL) was measured by the esophageal balloon catheter technique. Airway responsiveness was determined by first securing cumulative dose response curves to inhaled carbachol (a constrictor agonist) by measuring RL before and after inhalation of buffered saline and after each administration of 10 breaths of increasing concentrations of carbachol (0.25, 0.5, 1.0, 2.0 and 4.0% wt/vol solution). Airway responsiveness was measured by determining the cumulative provocation dose (PD400) of carbachol (in breath units) that increased RL to 400% above baseline. One breath unit was defined as one breath of 1% carbachol solution.
To illustrate the effectiveness of the formulations according to the invention to treat and alleviate allergen related diseases and conditions, including but not limited to the specific diseases and conditions recited herein, sheep were assessed in multiple experiments which compared various formulations containing no active ingredient to animals which were provided formulations comprising a compound of formula I (SSS-02). To measure pulmonary airflow resistance, the sheep were intubated with a cuffed nasotracheal tube and pulmonary airflow resistance (RL) was measured by the esophageal balloon catheter technique. These methods are accepted and well known methods found in the literature.
(§2) For airway studies, each animal's baseline airway responsiveness (PD400) was determined and then, on different experimental days, the test sheep underwent airway challenge with Ascaris suum antigen. RL was measured to establish baseline, then measured again immediately after antigen challenge and hourly for an eight hour period and then a post challenge PD400 was measured 24 hours after antigen challenge. In each of the Figures presented herein, FIGS. 1A, 2A, 3A etc. present day two data measured on an hourly basis for the eight hour period and contain control data (closed circles) and drug treatment data (open circles or triangles (closed or open)). The drug treatment experiments were conducted on the same animals used in the control studies but after a period of several weeks following the day 3 PD400 measurements. FIGS. 1B, 2B, 3B etc. contain the day one baseline PD400 data and day three PD400 data following antigen challenge in control or drug treated animals.
(§3) Data were expressed or may be expressed as (a) mean+/−SE % change of RL and (b) PD400 in breath units. Data were also expressed as (c) % protection of Early Airway Response (EAR, for 0-4 hours) and Late Airway Response (LAR, for 4-8 hours), as estimated by area under the curve for EAR and LAR respectively. And (d) AHR %

[2] = tested on: allergic sheep challenged with Ascaris suum antigen; assay: Post-antigen airway hyperresponsiveness (AHR), PD400 of inhaled carbachol, in allergic sheep; type: in vivo
Protocol: as §1
To assess airway responsiveness, cumulative dose response curves to inhaled carbachol were performed by measuring RL before and after inhalation of buffered saline and after each administration of 10 breaths of increasing concentrations of carbachol (0.25, 0.5, 1.0, 2.0, and 4.0% wt/vol solution). Airway responsiveness was measured by determining the cumulative provocation dose (PD400) of carbachol (in breath units) that increased RL to 400% above baseline. One breath unit was defined as one breath of 1% carbachol solution.
as §2, §3
Thus, the numbers in the Figures as presented were obtained by the formula: Baseline PD400-drugantigenPD400 was x-y;Baseline PD400-ControlantigenPD400 was x-z. x-y/x-z×100=n. 100−n=X % protection in AHR.

[3] = 0.5 mg/kg QD x 4 days oral versus i.v., sheep, listed as 2,5-anhydro-3-O-(α-L-idopyranosyl)-D-mannitol hepta-O-sulfate sodium salt
[4] = i.v. 0.5 mg/kg QD for 4 days, last dose 90 min before antigen, n=5
[5] = inhaled multiple dose 10 mg x 3, n=6
[6] = inhaled multiple dose 10 mg x 3, n=6, sodium salt
[7] = inhaled single dose 10 mg, 30 min before antigen, n=5
[8] = oral 0.5 mg/kg BID x 7 doses, last dose 90 min before antigen, n=5
[9] = oral 0.5 mg/kg x 3 doses, one every 12 h, antigen 90 min after last dose, n=8
[10] = oral 1 mg/kg x 3 doses, one every 12 h, antigen 90 min after last dose, n=8
[11] = oral liquid 0.5 mg/kg QD for 4 days, last dose 90 min before antigen, n=5
[12] = single oral dose 0.5 mg/kg, 90 min before antigen, n=5
[13] = single oral dose 1 mg/kg, 90 min before antigen, n=5

O=S(=O)([O-])OC[C@@H]1O[C@@H](O[C@H]2[C@H](OS(=O)(=O)[O-])[C@@H](COS(=O)(=O)[O-])O[C@@H]2COS(=O)(=O)[O-])[C@H](OS(=O)(=O)[O-])[C@@H](OS(=O)(=O)[O-])[C@@H]1OS(=O)(=O)[O-].[Na+].[Na+].[Na+].[Na+].[Na+].[Na+].[Na+] [SSS-056-01, 2,5-anhydro-3-O-(α-L-idopyranose)-D-mannitol-hepta-O-sulfate-hepta sodium salt]
inhibition of EAR [1, 4]: 77%
inhibition of LAR [1, 4]: 92%
inhibition of LAR [1, 5]: 75%
effect on EAR [1, 6]: without an effect; also recorded: no significant cumulative effect
effect on LAR (in words) [1, 6]: did have an effect on LAR; also recorded: did inhibit LAR
effect on EAR, LAR and AHR ([1]; inhaled single dose 5 mg, 30 min before antigen, n=5): ineffective
effect on EAR [1, 7]: without an effect
inhibition of LAR [1, 7]: 75%
effect on EAR, LAR and AHR ([1]; oral 0.25 mg/kg x 3 doses, one every 12 h, antigen 90 min after last dose, n=8): ineffective
inhibition of EAR [1, 8]: 76%
inhibition of LAR [1, 8]: 96%
inhibition of EAR [1, 9]: 30%
inhibition of LAR [1, 9]: 85%
inhibition of EAR [1, 10]: 54%
inhibition of LAR [1, 10]: 87%
inhibition of EAR [1, 11]: 77%
inhibition of LAR [1, 11]: 95%
effect on EAR, LAR and AHR ([1]; single oral dose 0.25 mg/kg, 90 min before antigen, n=5): ineffective
effect on EAR [1, 12]: without an effect
inhibition of LAR [1, 12]: 71%
effect on EAR [1, 13]: without an effect
inhibition of LAR [1, 13]: 77%
inhibition of AHR ([2]; i.v. 0.5 mg/kg QD for 4 days, PD400 24 h post-antigen, n=5): 100%
inhibition of AHR [2, 5]: 100%
inhibition of AHR [2, 7]: 100%
inhibition of AHR ([2]; oral 0.5 mg/kg BID x 7 doses, n=5): 100%
inhibition of AHR ([2]; oral 0.5 mg/kg x 3 doses, one every 12 h, n=8): 100%
inhibition of AHR ([2]; oral 1 mg/kg x 3 doses, one every 12 h, n=8): 100%
inhibition of AHR ([2]; oral liquid 0.5 mg/kg QD for 4 days, PD400 24 h post-antigen, n=5): 100%
inhibition of AHR [2, 12]: 100%
inhibition of AHR [2, 13]: 100%
bioavailability of oral dose versus intravenous dose [3]: comparable bioavailability
